This is an account of results in US9585893B2, “Flumazenil complexes, compositions comprising same and uses thereof” (COERULEUS LTD., priority 2011, dated 2017).

Data set [1] is classed as physicochemical. As to the method: Flumazenil chloride salt consisting of flumazenil and hydrochloride acid was prepared (FIG. 1). […] The concentration of flumazenil in that composition is higher by […] than the concentration of flumazenil in the commercial product Romazicon® (Romazicon® contains 0.01% flumazenil).
Data set [2] deals with hepatic encephalopathy in patients with cirrhosis. To be noted: intravenous infusion of 1 mg flumazenil in 20 ml saline over 3-5 minutes; cited from earlier work.
For data set [3] the following is noted: adult doses; cited from earlier work.

Where a name gives a salt, the structure may show the parent alone.

Turning to `CCOC(=O)c1ncn2c1CN(C)C(=O)c1cc(F)ccc1-2` [Flumazenil chloride salt], the “concentration of flumazenil in the composition enabled by increased solubility” value in data set [1] was determined as 0.66%. Take `CCOC(=O)c1ncn2c1CN(C)C(=O)c1cc(F)ccc1-2` [flumazenil, ethyl 8-fluoro-5,6-dihydro-5-methyl-6-oxo-4H-imidazo[1,5-a][1,4]benzodiazepine-3-carboxylate]: in data set [2], the “effect on recovery or survival” value is recorded as “no significant effect” and the “effect on short-term improvement of hepatic encephalopathy” value is listed as “significant beneficial effect”. In the case of `NC(=O)c1cccnc1` [nicotinamide, 3-pyridinecarboxamide], the “dose considered to have toxic potential” value in data set [3] is listed as more than 3 gm/day.
